In brackets after ≈: the same amount, converted by molar mass. Read-outs that look alike come from different tables or passages of the source.
Assays:
Assay type in all cases: cell-based
[1] = system: Escherichia coli; experiment: MIC, broth microdilution, standard strains and Japanese clinical isolates (Example 5, Table 4)
[2] = system: Klebsiella pneumoniae; experiment: as above
[3] = system: Enterobacter cloacae; experiment: as above
[4] = system: Enterobacter hormaechei; experiment: as above; conditions: ATCCBAA2082; KUB4001 Enterobacter hormaechei ATCC BAA-2082, KPC-2
[5] = system: Providencia rettgeri; experiment: as above; conditions: ATCCBAA2525; KUB4010 Providencia rettgeri ATCC BAA-2525, OXA-181
[6] = system: 53 CRE and CPE strains; experiment: MICrange, MIC50, MIC80, MIC90 for 53 bacterial isolates (Example 5, Table 5); conditions: 53 bacterial isolates
[7] = system: CRE and CPE strains; experiment: MIC, broth microdilution, standard strains and Japanese clinical isolates (Example 5, Table 4 continued; organism of each KUB strain not given)

`CC(C)(O/N=C(\C(=O)N[C@@H]1C(=O)N2C(C(=O)[O-])=C(C[n+]3ccccc3)CS[C@H]12)c1csc(N)n1)C(=O)O` [CAZ, ceftazidime] gave an MIC ([1]; ATCCBAA2452, KUB4005 Escherichia coli ATCC BAA-2452, NDM-1) greater than 32 µg/mL, an MIC ([1]; ATCCBAA2471, KUB4007 Escherichia coli ATCC BAA-2471, NDM-6) greater than 32 µg/mL and an MIC ([2]; ATCCBAA1898, KUB3996 Klebsiella pneumoniae ATCC BAA-1898, KPC-2) greater than 32 µg/mL. The MIC ([2]; ATCCBAA1899, KUB3997 Klebsiella pneumoniae ATCC BAA-1899, KPC-2) was greater than 32 µg/mL, the MIC ([2]; ATCCBAA1900, KUB3998 Klebsiella pneumoniae ATCC BAA-1900, KPC-3) was greater than 32 µg/mL and the MIC ([2]; ATCCBAA1904, KUB3999 Klebsiella pneumoniae ATCC BAA-1904, KPC-3) was 16 µg/mL (≈ 29.3 µM). The MIC ([2]; ATCCBAA2078, KUB4000 Klebsiella pneumoniae ATCC BAA-2078, KPC-3) was greater than 32 µg/mL, the MIC ([2]; ATCCBAA2146, KUB4011 Klebsiella pneumoniae ATCC BAA-2146, NDM-1) was greater than 32 µg/mL and the MIC ([2]; ATCCBAA2342, KUB4003 Klebsiella pneumoniae ATCC BAA-2342, KPC-3) was greater than 32 µg/mL. The MIC ([2]; ATCCBAA2343, KUB4004 Klebsiella pneumoniae ATCC BAA-2343, KPC-3) was greater than 32 µg/mL, the MIC ([2]; ATCCBAA2472, KUB4008 Klebsiella pneumoniae subsp. Pneumoniae ATCC BAA-2472, NDM-1) was greater than 32 µg/mL and the MIC ([2]; ATCCBAA2473, KUB4009 Klebsiella pneumoniae ATCC BAA-2473, NDM-1) was greater than 32 µg/mL. The MIC ([2]; KUB3631 Klebsiella pneumoniae Clinical isolate, IMP-1) was greater than 32 µg/mL, the MIC ([2]; KUB3633 Klebsiella pneumoniae Clinical isolate, IMP-6) was 32 µg/mL (≈ 58.5 µM) and the MIC ([2]; KUB3634 Klebsiella pneumoniae Clinical isolate, IMP-6) was 16 µg/mL (≈ 29.3 µM). It also gave an MIC ([2]; KUB3635 Klebsiella pneumoniae Clinical isolate, IMP-1) greater than 32 µg/mL, an MIC ([3]; ATCCBAA2341, KUB4002 Enterobacter cloacae ATCC BAA-2341, KPC-3) greater than 32 µg/mL and an MIC ([3]; ATCCBAA2468, KUB4006 Enterobacter cloacae ATCC BAA-2468, NDM-1) greater than 32 µg/mL. The MIC [4] was greater than 32 µg/mL, the MIC [5] was greater than 32 µg/mL and the MIC50 ([6]; read-out: MIC50) was greater than 32 µg/mL. The MIC80 ([6]; read-out: MIC80) was greater than 32 µg/mL, the MIC90 ([6]; read-out: MIC90) was greater than 32 µg/mL and the MIC ([7]; strain KUB3148, carbapenemase gene KPC-3, read-out: MIC) was greater than 32 µg/mL. It also gave an MIC ([7]; strain KUB3149, carbapenemase gene NDM-1, read-out: MIC) greater than 32 µg/mL, an MIC ([7]; strain KUB3150, carbapenemase gene OXA-48, read-out: MIC) of 1 µg/mL (≈ 1.83 µM) and an MIC ([7]; strain KUB3151, carbapenemase gene IMP-1, read-out: MIC) greater than 32 µg/mL. For the same compound, the MIC ([7]; strain KUB3152, carbapenemase gene KPC-2, read-out: MIC) was 32 µg/mL (≈ 58.5 µM), the MIC ([7]; strain KUB3153, carbapenemase gene KPC-3, read-out: MIC) was greater than 32 µg/mL and the MIC ([7]; strain KUB3154, carbapenemase gene KPC-2, read-out: MIC) was 32 µg/mL (≈ 58.5 µM). For the same compound, the MIC ([7]; strain KUB3158, carbapenemase gene OXA-48) was 0.5 µg/mL (≈ 0.915 µM), the MIC ([7]; strain KUB3169, carbapenemase gene Unidentified) was 8 µg/mL (≈ 14.6 µM) and the MIC ([7]; strain KUB3170, carbapenemase gene Unidentified) was 8 µg/mL (≈ 14.6 µM). The MIC ([7]; strain KUB3171, carbapenemase gene -) was 8 µg/mL (≈ 14.6 µM).

Reference: patent EP4635500A1, “THERAPEUTIC AGENT FOR BACTERIAL INFECTION” (Sumitomo Pharma Co., Ltd., priority 2022, dated 2024)
